Results taken from patent publication US20250368649A1, “TETRAHYDROPYRIDOPYRIMIDINE PAN-KRAS INHIBITORS” (Mirati Therapeutics, Inc., priority 2022, published 2025).

Assays:
H460 cells = assay: Inhibition of KRas-mediated phosphorylation of ERK (Cisbio HTRF pERK), H460 cells; format: cell-based; details: Homo sapiens; for inhibition at 0.1 µM: NCI-H460, single point at 100 nM, 3 hrs compound incubation; for IC50: NCI-H460, 3 h, 3 hr compound incubation
KRas G12D = KRas G12D (Homo sapiens, UniProt P01116, G12D); assay: biochemical; details: Binding to KRas (IC50 nM) G12D, TR-FRET displacement, KRas G12D
Sequence of KRas G12D (P01116 1-169 isoform P01116-2 G12D): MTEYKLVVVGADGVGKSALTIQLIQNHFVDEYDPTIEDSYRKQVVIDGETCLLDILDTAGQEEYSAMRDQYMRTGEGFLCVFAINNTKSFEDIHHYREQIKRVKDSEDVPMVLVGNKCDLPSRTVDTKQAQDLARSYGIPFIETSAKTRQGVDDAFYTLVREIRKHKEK

H358 cells = assay: Inhibition of KRas-mediated phosphorylation of ERK (Cisbio HTRF pERK), H358 cells; format: cell-based; details: Homo sapiens; for inhibition at 0.1 µM: NCI-H358, single point at 100 nM, 3 hrs compound incubation; for IC50: NCI-H358, 3 h, 3 hr compound incubation
A549 cells = assay: Inhibition of KRas-mediated phosphorylation of ERK (Cisbio HTRF pERK), A549 cells; format: cell-based; details: Homo sapiens; for inhibition at 0.1 µM: single point at 100 nM, 3 hrs compound incubation; for IC50: A549, 3 h, 3 hr compound incubation
H727 cells = assay: Inhibition of KRas-mediated phosphorylation of ERK (Cisbio HTRF pERK), H727 cells; format: cell-based; details: Homo sapiens; for IC50: NCI-H727, 3 h, 3 hr compound incubation; for inhibition at 0.1 µM: NCI-H727, single point at 100 nM, 3 hrs compound incubation
ASPC1 cells = assay: Inhibition of KRas-mediated phosphorylation of ERK (Cisbio HTRF pERK), ASPC1 cells; format: cell-based; details: Homo sapiens, AsPC-1 cells; for IC50: ASPC1, 3 h, 3 hr compound incubation; for inhibition at 0.1 µM: ASPC1, single point at 100 nM, 3 hrs compound incubation
MKN1 cells = assay: Inhibition of KRas-mediated phosphorylation of ERK (Cisbio HTRF pERK), MKN1 cells; format: cell-based; details: Homo sapiens
Procedure, shortened: (§1)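 Cells were seeded on day 1 at 6,000 per well in RPMI containing 10% FBS before compound treatment and phospho-ERK detection.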

KRas G12R = KRas G12R (Homo sapiens, UniProt P01116, G12R); assay: biochemical; details: Binding to KRas (IC50 nM) G12R, TR-FRET displacement, KRas G12R
Sequence of KRas G12R (P01116 1-169 isoform P01116-2 G12R): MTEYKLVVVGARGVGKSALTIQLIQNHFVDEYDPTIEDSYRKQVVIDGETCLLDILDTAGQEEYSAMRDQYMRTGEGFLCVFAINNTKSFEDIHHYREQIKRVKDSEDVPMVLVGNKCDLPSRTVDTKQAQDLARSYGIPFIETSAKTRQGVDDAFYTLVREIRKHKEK

PSN1 cells = assay: Inhibition of KRas-mediated phosphorylation of ERK (Cisbio HTRF pERK), PSN1 cells; format: cell-based; details: Homo sapiens, PSN1, 3 h
Procedure, shortened: as §1

HCT116 cells = assay: Inhibition of KRas-mediated phosphorylation of ERK (Cisbio HTRF pERK), HCT116 cells; format: cell-based; details: Homo sapiens; for inhibition at 0.1 µM: HCT-116, single point at 100 nM, 3 hrs compound incubation; for IC50: HCT-116, 3 h, 3 hr compound incubation
KRas G12V = KRas G12V (Homo sapiens, UniProt P01116, G12V); assay: biochemical; details: Binding to KRas (IC50 nM) G12V, TR-FRET displacement, KRas G12V
Sequence of KRas G12V (P01116 1-169 isoform P01116-2 G12V): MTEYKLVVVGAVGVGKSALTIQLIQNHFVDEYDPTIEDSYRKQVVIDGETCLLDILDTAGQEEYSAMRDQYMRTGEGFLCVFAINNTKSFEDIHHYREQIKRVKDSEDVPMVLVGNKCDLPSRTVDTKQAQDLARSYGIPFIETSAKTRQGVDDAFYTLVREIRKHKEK

[1] = MKN-1, 3 hour compound incubation, Cisbio pERK HTRF
[2] = 3 hour compound incubation, Cisbio pERK HTRF

Row | IC50 (KRas G12D) [nM] | IC50 (H727 cells; Cisbio pERK HTRF) [nM] | IC50 (ASPC1 cells; Cisbio pERK HTRF) [nM] | IC50 (MKN1 cells; [1]) [nM] | IC50 (KRas G12R) [nM] | IC50 (PSN1 cells; [2]) [nM] | IC50 (KRas G12V) [nM] | SMILES | inhibition at 0.1 µM (H460 cells) [%] | inhibition at 0.1 µM (H358 cells) [%] | inhibition at 0.1 µM (A549 cells) [%] | inhibition at 0.1 µM (H727 cells) [%] | inhibition at 0.1 µM (ASPC1 cells) [%] | inhibition at 0.1 µM (HCT116 cells) [%] | further results
1 | < 2 | 178 | 105 | 10.9 | < 2 | > 10000 | 3 | CCc1c(F)ccc2cc(O)cc(N3CCc4c(nc(OC[C@@]56CCCN5C[C@H](F)C6)nc4N4CCCn5nc(P(C)(C)=O)cc5C4)C3)c12 [Example 350, (5-(7-(8-ethyl-7-fluoro-3-hydroxynaphthalen-1-yl)-2-(((2R,7aS)-2-fluorotetrahydro-1H-pyrrolizin-7a(5H)-yl)methoxy)-5,6,7,8-tetrahydropyrido[3,4-d]pyrimidin-4-yl)-5,6,7,8-tetrahydro-4H-pyrazolo[1,5-a][1,4]diazepin-2-yl)dimethylphosphine oxide] | 44 | 76 | 23 |  |  | 10 | 
2 | < 2 |  |  |  | < 2 |  | < 2 | CCc1c(F)ccc2cc(O)cc(N3CCc4c(nc(OC[C@@]56CCCN5C[C@H](F)C6)nc4N4CCCn5nc(N)nc5C4)C3)c12 [Example 631, 4-(4-(2-amino-6,7-dihydro-5H-[1,2,4]triazolo[1,5-a][1,4]diazepin-8(9H)-yl)-2-(((2R,7aS)-2-fluorotetrahydro-1H-pyrrolizin-7a(5H)-yl)methoxy)-5,8-dihydropyrido[3,4-d]pyrimidin-7(6H)-yl)-5-ethyl-6-fluoronaphthalen-2-ol] |  |  |  |  |  |  | IC50 (H460 cells): 341 nM; IC50 (H358 cells): 24 nM; IC50 (A549 cells): 68 nM; IC50 (H727 cells): 356 nM; IC50 (ASPC1 cells): 69 nM; IC50 (MKN1 cells; MKN-1, 3 hr compound incubation): 48.3 nM; IC50 (PSN1 cells; 3 hr compound incubation): 7140 nM; IC50 (HCT116 cells): 508 nM
3 | < 2 | 1950 | 1820 | 1110 | 2 | > 10000 | 2 | CCc1c(F)ccc2cc(O)cc(N3CCc4c(nc(OC[C@@]56CCCN5C[C@H](F)C6)nc4N4CCCn5nc(CNC(=O)NC)cc5C4)C3)c12 [Example 352, 1-((5-(7-(8-ethyl-7-fluoro-3-hydroxynaphthalen-1-yl)-2-(((2R,7aS)-2-fluorohexahydro-1H-pyrrolizin-7a-yl)methoxy)-5,6,7,8-tetrahydropyrido[3,4-d]pyrimidin-4-yl)-5,6,7,8-tetrahydro-4H-pyrazolo[1,5-a][1,4]diazepin-2-yl)methyl)-3-methylurea] | -4 | -7 | -15 |  |  | -2 | 
4 | 16 | 1740 | 2380 | 1450 | 8 | > 10000 | 12 | CCc1c(F)ccc2cc(O)cc(N3CCc4c(nc(OCC5(CN(C)C)CC5)nc4N4CCCC(c5cn(C)nn5)C4)C3)c12 (stereo not shown) [Example 598, 4-(2-((1-((dimethylamino)methyl)cyclopropyl)methoxy)-4-(3-(1-methyl-1H-1,2,3-triazol-4-yl)piperidin-1-yl)-5,8-dihydropyrido[3,4-d]pyrimidin-7(6H)-yl)-5-ethyl-6-fluoronaphthalen-2-ol] |  |  |  |  |  |  | IC50 (H460 cells; Cisbio pERK HTRF): 1260 nM; IC50 (H358 cells; Cisbio pERK HTRF): 757 nM; IC50 (A549 cells; Cisbio pERK HTRF): 1540 nM; IC50 (HCT116 cells; Cisbio pERK HTRF): 4280 nM
5 | < 2 | 274 | 46 | 49.7 | < 2 | > 10000 | < 2 | CCc1c(F)ccc2cc(O)cc(N3CCc4c(nc(OC[C@@]56CCCN5C[C@H](F)C6)nc4N4CCCn5nc(C(=O)N6CCNC7CC6C7)cc5C4)C3)c12 [Example 608, (2,5-diazabicyclo[4.1.1]octan-2-yl)(5-(7-(8-ethyl-7-fluoro-3-hydroxynaphthalen-1-yl)-2-(((2R,7aS)-2-fluorotetrahydro-1H-pyrrolizin-7a(5H)-yl)methoxy)-5,6,7,8-tetrahydropyrido[3,4-d]pyrimidin-4-yl)-5,6,7,8-tetrahydro-4H-pyrazolo[1,5-a][1,4]diazepin-2-yl)methanone] |  |  |  |  |  |  | IC50 (H460 cells; Cisbio pERK HTRF): 353 nM; IC50 (H358 cells; Cisbio pERK HTRF): 42 nM; IC50 (A549 cells; Cisbio pERK HTRF): 215 nM; IC50 (HCT116 cells; Cisbio pERK HTRF): 544 nM
6 | 2 | 302 | 52 | 294 | < 2 | > 10000 | < 2 | CCc1c(F)ccc2cc(O)cc(N3CCc4c(nc(OC[C@@]56CCCN5C[C@H](F)C6)nc4N4CCCn5nc(C(=O)N6CCC7CC6CN7)cc5C4)C3)c12 (stereo partly drawn) [Example 235, 2,6-diazabicyclo[3.2.1]octan-2-yl(5-(7-(8-ethyl-7-fluoro-3-hydroxynaphthalen-1-yl)-2-(((2R,7aS)-2-fluorohexahydro-1H-pyrrolizin-7a-yl)methoxy)-5,6,7,8-tetrahydropyrido[3,4-d]pyrimidin-4-yl)-5,6,7,8-tetrahydro-4H-pyrazolo[1,5-a][1,4]diazepin-2-yl)methanone] | 2 | 8 | 13 | -5 | 30 | 5 | 
7 | < 2 | 132 | 23 | 41.2 | 2 | > 10000 | < 2 | CCc1c(F)ccc2cc(O)cc(N3CCc4c(nc(OC[C@@]56CCCN5C[C@H](F)C6)nc4N4CCCn5nc(C(=O)N6CCC7CC6CN7C)cc5C4)C3)c12 (stereo partly drawn) [Example 501, (5-(7-(8-ethyl-7-fluoro-3-hydroxynaphthalen-1-yl)-2-(((2R,7aS)-2-fluorohexahydro-1H-pyrrolizin-7a-yl)methoxy)-5,6,7,8-tetrahydropyrido[3,4-d]pyrimidin-4-yl)-5,6,7,8-tetrahydro-4H-pyrazolo[1,5-a][1,4]diazepin-2-yl)(6-methyl-2,6-diazabicyclo[3.2.1]octan-2-yl)methanone] | 17 | 95 | 27 | 40 | 86 | 23 | 

Row | SMILES | IC50 (KRas G12D) [nM] | IC50 (H727 cells; Cisbio pERK HTRF) [nM] | IC50 (ASPC1 cells; Cisbio pERK HTRF) [nM] | IC50 (MKN1 cells; [1]) [nM] | IC50 (KRas G12R) [nM] | IC50 (PSN1 cells; [2]) [nM] | IC50 (KRas G12V) [nM] | inhibition at 0.1 µM (H460 cells) [%] | inhibition at 0.1 µM (H358 cells) [%] | inhibition at 0.1 µM (A549 cells) [%] | inhibition at 0.1 µM (H727 cells) [%] | inhibition at 0.1 µM (ASPC1 cells) [%] | inhibition at 0.1 µM (HCT116 cells) [%] | further results
8 | CCc1c(F)ccc2cc(O)cc(N3CCc4c(nc(OC[C@@]56CCCN5C[C@H](F)C6)nc4N4CCCn5nc(C(=O)N6[C@@H]7CNC[C@H]6C7)cc5C4)C3)c12 [Example 499, (1R,5S)-3,6-diazabicyclo[3.1.1]heptan-6-yl(5-(7-(8-ethyl-7-fluoro-3-hydroxynaphthalen-1-yl)-2-(((2R,7aS)-2-fluorohexahydro-1H-pyrrolizin-7a-yl)methoxy)-5,6,7,8-tetrahydropyrido[3,4-d]pyrimidin-4-yl)-5,6,7,8-tetrahydro-4H-pyrazolo[1,5-a][1,4]diazepin-2-yl)methanone] | < 2 | 168 | 41 | 186 | < 2 | > 10000 | < 2 | 6 | 57 | 25 | 37 | 47 | 11 | 
